From patent publication US20140248655A1, “QUANTITATIVE SOFT AGAR COLONY FORMATION ASSAY USING TETRAZOLIUM THAT GENERATES WATER-SOLUBLE FORMAZAN” (KAGOSHIMA UNIVERSITY, priority 2011, published 2014)

System: DU145 cells
Experiment: Method of the invention: soft agar colony formation assay with WST-1, DU145
Assay type: cell-based, human
Text: The […] compounds used may be able to function as ideal antitumor agents that have PCA-1 inhibitory effects, fewer (and less severe) side effects (cytotoxicity), and high tumor-shrinking effects.

CC(=O)O[C@H]1C(=O)[C@@]2(C)[C@H]([C@H](OC(=O)c3ccccc3)[C@]3(O)C[C@H](OC(=O)[C@H](O)[C@@H](NC(=O)c4ccccc4)c4ccccc4)C(C)=C1C3(C)C)[C@]1(OC(C)=O)CO[C@@H]1C[C@@H]2O [Paclitaxel]
cell viability (%) (DU145 10,000 cells/well, culture 1 week, concentrations of FIG. 2): lowered by Paclitaxel as an anticancer agent in a concentration-dependent manner | OD value (OD405) versus number of seeded cells (medium containing 100 μmol of Paclitaxel, culture 7 days, FIG. 1): the OD value was low, and it was not correlated with the number of cells
